Measurements published in PubChem BioAssay (NCI).
Where “and” joins values, the source holds several entries; their conditions need not be identical. Identical values can stand only once.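 Method: 48-hour compound exposure of cells in 96-well plates, five concentrations, linear interpolation of endpoints. GI50 = concentration required for 50% inhibition of growth. TGI denotes the concentration required for complete inhibition of growth.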

How the values were obtained:
Assay in all cases: growth of human tumour cells (NCI), 48 h
IGROV1 ovarian = tested on: IGROV1 ovarian
KM12 colon = tested on: KM12 colon
MCF7 breast = tested on: MCF7 breast
MDA-MB-435 = tested on: MDA-MB-435
NCI-H23 lung = tested on: NCI-H23 lung
RXF 393 renal = tested on: RXF 393 renal
SF-268 CNS = tested on: SF-268 CNS
SK-MEL-2 melanoma = tested on: SK-MEL-2 melanoma
U251 CNS = tested on: U251 CNS
UO-31 renal = tested on: UO-31 renal

Structure (SMILES) | GI50 (IGROV1 ovarian) | TGI (IGROV1 ovarian) | GI50 (KM12 colon) | TGI (KM12 colon) [µM] | GI50 (MCF7 breast) | TGI (MCF7 breast) | GI50 (MDA-MB-435) | TGI (MDA-MB-435) | GI50 (NCI-H23 lung) | TGI (NCI-H23 lung) | GI50 (RXF 393 renal) | TGI (RXF 393 renal) | GI50 (SF-268 CNS) | TGI (SF-268 CNS) | GI50 (SK-MEL-2 melanoma) | TGI (SK-MEL-2 melanoma) [µM] | GI50 (U251 CNS) [µM] | TGI (U251 CNS) | GI50 (UO-31 renal) | TGI (UO-31 renal)
CC(=O)Nc1cccc(-n2c(=O)n(C3CC3)c(=O)c3c(Nc4ccc(I)cc4F)n(C)c(=O)c(C)c32)c1 | 0.034 µM and 0.0221 µM | > 81.6 µM | 0.0102 µM and 0.0225 µM | > 53.7 | 12.1 µM and > 8.55 µM | > 69.5 µM | < 0.01 µM and 0.00313 µM | 25 µM and > 10 µM | < 0.01 µM and 0.0212 µM | 19.3 µM and > 10 µM | 0.0661 µM and 0.148 µM | 13.1 µM and > 5.97 µM | 3.85 µM and > 6.08 µM | > 100 µM | < 0.01 µM and 0.002 µM | 0.0544 | 0.401 | 32 µM and > 10 µM | 0.141 µM and 0.0654 µM | 10.1 µM and > 10 µM
C[C@@H]1CC[C@H]2C(COCC3=C(C(F)(F)F)O[C@@H]4O[C@@]5(C)CC[C@H]6[C@H](C)CC[C@@H]3[C@@]46OO5)=C(C(F)(F)F)O[C@@H]3O[C@@]4(C)CC[C@@H]1[C@]32OO4 | – | > 100 µM | < 0.01 µM | > 100 | < 0.01 µM | > 100 µM | < 0.0108 µM | > 100 µM | < 0.01 µM | > 100 µM | – | – | – | – | – | – | < 0.01 | > 100 µM | < 0.01 µM | > 100 µM
COc1ccc(NC(=O)Nc2n[nH]c3ccccc23)cc1 | > 100 µM | > 100 µM | > 100 µM | > 100 | > 100 µM | > 100 µM | > 100 µM | > 100 µM | > 100 µM | > 100 µM | > 100 µM | > 100 µM | > 100 µM | > 100 µM | > 100 µM | > 100 | > 100 | > 100 µM | > 100 µM | > 100 µM
O=C1NC(c2ccc(O)cc2)C2CCC1C2 (configuration not stated) | – | > 100 µM | – | > 100 | – | – | – | – | – | > 100 µM | – | – | – | > 100 µM | – | > 100 | – | > 100 µM | – | > 100 µM
O=C(c1cccs1)c1c(C(F)(F)F)n([O-])c2ccccc2[n+]1=O | 0.0603 µM | 2.29 µM | 1.12 µM | 3.07 | 0.549 µM | 1.95 µM | 1.15 µM | 3.5 µM | 0.788 µM | 1.73 µM | – | – | 0.395 µM | 1.16 µM | 2.21 µM | 10.5 | 1.07 | 2.79 µM | 0.0775 µM | 6.08 µM
COc1cc2c3c(cccc3c1)C(=O)N(CCN1CCCC1)C2=O | 2.66 µM | 6.78 µM | 2.88 µM | > 100 | 1.71 µM | 20.4 µM | 2.81 µM | 8.25 µM | 2.49 µM | 8.21 µM | 1.41 µM | 3.54 µM | 2.48 µM | 9.06 µM | 3.14 µM | 6.61 | 2.75 | 9.59 µM | – | –
O=[N+]([O-])[C@@H]1C2C=CC(C2)[C@H]1Cl (some centres not stated) | – | > 100 µM | – | > 100 | – | – | – | – | – | > 100 µM | – | > 100 µM | – | > 100 µM | – | > 100 | – | > 100 µM | – | > 100 µM
O=C(C#Cc1c[nH]c(=O)[nH]c1=O)c1ccccc1Cl | – | 35 µM | – | 88.4 | – | – | – | – | – | 32.3 µM | – | 14.7 µM | – | 41.4 µM | – | 29.9 | – | 35.1 µM | – | 38.5 µM
COc1ccc2cc1Oc1ccc(cc1)C[C@H]1c3cc(c(OC)cc3CCN1C)Oc1c(OC)c(OC)cc3c1[C@H](C2)N(C)CC3 | 14.5 µM | 19.6 µM and 27.8 µM and > 100 µM | – | – | 5.27 µM | 14 µM and 17.8 µM and > 100 µM | – | – | – | 20.5 µM and 27.4 µM and > 100 µM | 1.97 µM | 12.1 µM and 6.61 µM | 12.6 µM | 16.5 µM and 25.1 µM and > 100 µM | – | – | 3.92 | 15.1 µM and 13.5 µM and > 100 µM | – | –
CCc1c2c(nc3cc4c(cc13)OCO4)-c1cc3c(c(=O)n1C2)COC(=O)[C@]3(O)CC | 0.33 µM and 0.39 µM | > 100 µM | 0.184 µM and 0.191 µM | > 100 | < 0.001 µM | – | 0.0182 µM and 0.0961 µM | > 100 µM | 0.00263 µM | 1.08 µM | – | 0.117 µM and 0.478 µM | 0.00907 µM | 0.622 µM | – | – | – | – | 0.0103 µM | 0.401 µM and 0.0689 µM
C1COCCN1.C1COCCN1.N.N.[Cl-].[Pt+2] | > 100 µM | > 100 µM | – | – | – | – | – | – | > 100 µM | > 100 µM | > 100 µM | > 100 µM | – | – | > 100 µM | > 100 | > 100 | > 100 µM | > 100 µM | > 100 µM
Cc1ccc(-c2c(N)nc(NC#N)nc2CCC(=O)Nc2ccccc2[N+](=O)[O-])cc1 | – | > 100 µM | – | > 100 | – | – | – | – | – | > 100 µM | – | > 100 µM | – | > 100 µM | – | > 100 | – | > 100 µM | – | > 100 µM
COc1cc2c(c3c1C=CCO3)C(=O)c1ccccc1C2=O | – | 78.5 µM | – | > 100 | – | – | – | – | – | > 100 µM | – | > 100 µM | – | > 100 µM | – | > 100 | – | > 100 µM | – | > 100 µM
CCCCCCCCCCCCC(=O)OC(c1cnco1)c1nc(C(O)CC(O)C(O)C(C)O)co1 (configuration not stated) | 1.71 µM | > 100 µM | 0.359 µM | 21.9 | – | – | – | – | 1.23 µM | 25 µM | 0.486 µM | 64.2 µM | 4.56 µM | > 47.3 µM | 4.79 µM | > 66 | 0.72 | > 62.8 µM | 5.77 µM | > 100 µM
FC(F)(F)c1nc(-c2ccccc2Cl)[nH]c1C(F)(F)F | – | 8.97 µM | – | 4.13 | – | – | – | – | – | 2.03 µM | – | 2.69 µM | – | > 29.5 µM | – | 1.4 | – | 3.08 µM | – | 2.15 µM
N#CC1(c2nc3ccccc3o2)C(=O)C(=O)N(C2C3CC4CC(C3)CC2C4)C(=O)C1=O (configuration not stated) | – | > 100 µM | – | > 100 | – | – | – | – | – | > 100 µM | – | > 100 µM | – | > 100 µM | – | > 100 | – | > 100 µM | – | > 100 µM
C=CCSC[C@H](NC(=O)COc1ccccc1)C(=O)NC(C(=O)OCc1ccc([N+](=O)[O-])cc1)=C(C)C | – | > 100 µM | – | > 100 | – | – | – | – | – | – | – | > 100 µM | – | > 100 µM | – | > 100 | – | > 100 µM | – | > 100 µM
CN(C)/C(=N/C(=S)Nc1ccccc1)SCc1ccccc1 | – | > 100 µM | – | > 100 | – | – | – | – | – | > 100 µM | – | > 100 µM | – | > 100 µM | – | > 100 | – | > 100 µM | – | 95.8 µM
